Source: patent US5990151A, “Optically active substituted phenylalkylamine derivatives” (Taisho Pharmaceutical Co., Ltd., priority 1995, dated 1999)
Where a name gives a salt, the structure may show the parent alone.

Assays:
[1] = tested on: sigma 1 receptor; conditions: cited from earlier work; for affinity for sigma 1 receptor: (agonist), Trends in Pharmacological Sciences, Vol. 13, pp. 85-86
[2] = tested on: humans; conditions: cited from earlier work
[3] = molecular target: T1, sigma 1 receptor (Cavia porcellus, UniProt Q60492); test: Receptor binding experiment, sigma 1, [3H](+)-pentazocine, membrane of total brains of guinea pigs; set-up: species or system Hartley guinea pigs; conditions: [3H](+)-pentazocine (2 nM), 25° C., 120 minutes, 50 mM Tris-HCl pH 7.4; non-specific: 10 μM haloperidol; read-out: Sigma 1 (IC50, concentration of the test drug which inhibits individual binding by 50%)
T1 construct: A membrane specimen prepared from the total brains of guinea pigs; from tissue; host or cells: total brains of Hartley guinea pigs (membrane specimen)
T1 sequence (Q60492 whole entry): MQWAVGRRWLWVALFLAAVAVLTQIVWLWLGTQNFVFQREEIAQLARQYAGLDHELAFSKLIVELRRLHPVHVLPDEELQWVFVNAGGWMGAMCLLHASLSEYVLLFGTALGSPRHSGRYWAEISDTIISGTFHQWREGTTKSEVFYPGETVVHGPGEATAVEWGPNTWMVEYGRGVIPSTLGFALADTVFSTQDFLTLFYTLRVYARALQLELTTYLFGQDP
Method: As experimental animals, Hartley guinea pigs were used. […] 121 (1994) using [^3 H] (+)-pentazocine (sigma 1) or [^3 H]1,3-di-o-tolylguanidine (DTG) (sigma 2) as a [^3 H]-labelled ligand.
A membrane specimen prepared from the total brains of guinea pigs, a [^3 H] ligand and a test drug were reacted in 50 mM Tris-HCl buffer (pH 7.4). For examining sigma 1, [^3 H](+)-pentazocine (2 nM) as a [^3 H] ligand was reacted at 25° C. for 120 minutes. For examining sigma 2, [^3 H] DTG (1 nM) as a [^3 H] ligand was reacted in the presence of 10^-7 M (+)-pentazocine at 25° C. for 90 minutes. After the completion of the reaction, the reaction solution was vacuum filtered through a glass filter (GF/B), and the radioactivity of the filter was determined with a liquid scintillation spectrometer.
The binding which occurred in the reaction in the presence 10 μM haloperidol was regarded as non-specific binding, and the difference obtained by subtracting non-specific binding from the total binding was regarded as specific binding. An inhibition curve was obtained by reacting a [^3 H] ligand at a specific concentration with a test drug at varied concentrations under the conditions described above. From this inhibition curve, the concentration of the test drug which inhibits individual binding by 50% (IC50) is obtained.

## C=CCN1CCC2(C)c3cc(O)ccc3CC1C2C (stereo not shown) [SKF10047, N-arylnormethazocine]
[1]
  affinity for sigma 1 receptor: high affinity
[2]
  develop psychotic symptoms in humans: develop psychotic symptoms in humans

## CCCCC(Cc1ccc(OC)c(OCCc2ccccc2)c1)NCCC (single isomer, unassigned; (-)) [B, (-)-N-propyl-1-butyl-2-[4-methoxy-3-(2-phenylethoxy)-phenyl]ethylamine hydrochloride]
[3]
  IC50: 0.73 nM

## CCCNC(CCC(C)C)Cc1ccc(OC)c(OCCc2ccccc2)c1 (single isomer, unassigned; (-)) [A, (-)-N-propyl-1-(3-methylbutyl)-2-[4-methoxy-3-(2-phenylethoxy)phenyl]ethylamine hydrochloride]
[3]
  IC50: 0.46 nM

## C[C@@H]1CN(CCCn2c3ccccc3c3ccccc32)C[C@H](C)N1 [Rimcazole]
[1]; sigma antagonist, background art
  specificity to and affinity for sigma 1 receptor: not sufficient

## CC(C)=CCN1CCC2(C)c3cc(O)ccc3CC1C2C (stereo not shown) [pentazocine]
[1]
  affinity for sigma 1 receptor: high affinity
[2]
  develop psychotic symptoms in humans: develop psychotic symptoms in humans
